Laboratory results from patent publication US10081632B2, “Substituted tetrahydropyrido[3′,2′:4,5]pyrrolo[1,2-α]pyrazine-2-carboxamides as RSK inhibitors” (Phoenix Molecular Designs, priority 2016, dated 2018).

Legend:
[1] = Solubility assessment, 20 mg/ml solution; assay type: physicochemical; settings: 100 mM in DMSO diluted in DMEM growth media to 20 mg/ml
Procedure: Solubility is an important property for therapeutic drug candidates. Poor solubility can lead to low bioavailability resulting in suboptimal drug delivery. It can also prevent the evaluation of test agents in animals because the concentration(s) needed to achieve the desired effect cannot be achieved to poor solubility. For solubility assessments, small molecules targeting RSK were compared. For these assessments, 100 mM solutions of the compounds dissolved in DMSO were diluted in DMEM growth media (Life Technologies) supplemented with fetal bovine serum (FBS, Life Technologies) and 100 units/ml penicillin and 100 units/ml streptomycin (Life Technologies) to make 20 mg/ml solutions. Once diluted, the solutions were vortexed and examined for the formation of precipitates. […] For Compound 26, a 100 mM solution of the compound dissolved in DMSO was diluted in phosphate buffered saline (Life Technologies) to make a 20 mg/ml solution. The stock of […] was chosen because this is the upper end of what would be required to dose mice for a range of studies including MTD, PK, PD and efficacy. The pH of this solution was determined to be 2, as previously described. […] At high concentrations some RSK inhibitors were highly soluble while others were not. Compound 0 is (R)—N-(1-benzyl-1H-pyrazol-4-yl)-9-methyl-6-oxo-6,7,8,9-tetrahydropyrido[3′,2′:4,5]pyrrolo[1,2-a]pyrazine-2-carboxamide. Compound 0 was not soluble, whereas Compounds 18, 20, 21, 25 and 26 were soluble under the same conditions (Table 5).

[2] = tested on: 4T1 cells; experiment: Monolayer growth inhibition, Alamar blue assay; assay type: cell-based; settings: Mus musculus; 4T1 (TNBC), 5 days, single dose on day 1
Source text: (§1) In all instances a single dose was given on day 1 of the experiment.

[3] = tested on: HCC1143 cells; experiment: Monolayer growth inhibition, Alamar blue assay; assay type: cell-based; settings: Homo sapiens; HCC1143 (TNBC), 5 days, single dose on day 1
Source text: as §1

[4] = tested on: HCC1937 cells; experiment: Monolayer growth inhibition, Alamar blue assay; assay type: cell-based; settings: Homo sapiens; HCC1937 (TNBC, BRCA Mutant), 5 days, single dose on day 1
Source text: as §1

[5] = tested on: JIMT-1 cells; experiment: Monolayer growth inhibition, Alamar blue assay; assay type: cell-based; settings: Homo sapiens; JIMT-1 (HER2), 5 days, single dose on day 1
Source text: as §1

[6] = tested on: MDA-MB-231 cells; experiment: Monolayer growth inhibition, Alamar blue assay; assay type: cell-based; settings: Homo sapiens; MDA-MB-231 (TNBC), 5 days, single dose on day 1
Source text: as §1

[7] = tested on: MDA-MB-435 cells; experiment: Monolayer growth inhibition, Alamar blue assay; assay type: cell-based; settings: Homo sapiens; MDA-MB-435 (Melanoma), 5 days, single dose on day 1
Source text: as §1

[8] = tested on: MDA-MB-468 cells; experiment: Monolayer growth inhibition, Alamar blue assay; assay type: cell-based; settings: Homo sapiens; MDA-MB-468 (TNBC), 5 days, single dose on day 1
Source text: as §1

[9] = tested on: PC3 cells; experiment: Monolayer growth inhibition, Alamar blue assay; assay type: cell-based; settings: Homo sapiens, PC-3; PC3 (Prostate), 5 days, single dose on day 1
Source text: as §1

[10] = tested on: SUM149 cells; experiment: Monolayer growth inhibition, Alamar blue assay; assay type: cell-based; settings: Homo sapiens; SUM149 (TNBC, BRCA Mutant), 5 days, single dose on day 1
Source text: as §1

[11] = tested on: SUM149-PTXR cells; experiment: Monolayer growth inhibition, Alamar blue assay; assay type: cell-based, Human; settings: Homo sapiens; SUM149-PTXR (TNBC, BRCA Mutant), 5 days, single dose on day 1
Source text: as §1

[12] = tested on: T47D cells; experiment: Monolayer growth inhibition, Alamar blue assay; assay type: cell-based, Human; settings: Homo sapiens; T47D (ER/PR), 5 days, single dose on day 1
Source text: as §1

[13] = tested on: All cell lines; experiment: Monolayer growth inhibition, Alamar blue assay, range over all cell lines; assay type: cell-based; settings: 120 h; range of IC50 over all cell lines of the table; read-out: IC50 Values - Alamar Blue (5 Days), Range, All
Source text: as §1

[14] = tested on: HCC1937 cells; experiment: Monolayer growth inhibition, crystal violet assay; assay type: cell-based; settings: Homo sapiens; HCC1937 (TNBC, BRCA Mutant), 5 days, single dose on day 1
Source text: (§2) In all instances a single dose was given on day 1 of the experiment. […] Complete (100%) growth suppression was achievable with several of the compounds in multiple different cell lines.

[15] = tested on: JIMT-1 cells; experiment: Monolayer growth inhibition, crystal violet assay; assay type: cell-based; settings: Homo sapiens; JIMT-1 (HER2), 5 days, single dose on day 1
Source text: as §2

[16] = tested on: MDA-MB-468 cells; experiment: Monolayer growth inhibition, crystal violet assay; assay type: cell-based; settings: Homo sapiens; MDA-MB-468 (TNBC), 5 days, single dose on day 1
Source text: as §2

[17] = tested on: T47D cells; experiment: Monolayer growth inhibition, crystal violet assay; assay type: cell-based; settings: Homo sapiens; T47D (ER/PR), 5 days, single dose on day 1
Source text: as §2

[18] = tested on: 4T1 cells; experiment: Monolayer growth inhibition, crystal violet assay; assay type: cell-based; settings: Mus musculus; 4T1 (TNBC), 5 days, single dose on day 1
Source text: as §1

[19] = tested on: HCC1143 cells; experiment: Monolayer growth inhibition, crystal violet assay; assay type: cell-based; settings: Homo sapiens; HCC1143 (TNBC), 5 days, single dose on day 1
Source text: as §1

[20] = tested on: MDA-MB-231 cells; experiment: Monolayer growth inhibition, crystal violet assay; assay type: cell-based; settings: Homo sapiens; MDA-MB-231 (TNBC), 5 days, single dose on day 1
Source text: as §1

[21] = tested on: MDA-MB-435 cells; experiment: Monolayer growth inhibition, crystal violet assay; assay type: cell-based; settings: Homo sapiens; MDA-MB-435 (Melanoma), 5 days, single dose on day 1
Source text: as §1

[22] = tested on: PC3 cells; experiment: Monolayer growth inhibition, crystal violet assay; assay type: cell-based; settings: Homo sapiens, PC-3; PC3 (Prostate), 5 days, single dose on day 1
Source text: as §1

[23] = tested on: SUM149 cells; experiment: Monolayer growth inhibition, crystal violet assay; assay type: cell-based; settings: Homo sapiens; SUM149 (TNBC, BRCA Mutant), 5 days, single dose on day 1
Source text: as §1

[24] = tested on: SUM149-PTXR cells; experiment: Monolayer growth inhibition, crystal violet assay; assay type: cell-based; settings: Homo sapiens; SUM149-PTXR (TNBC, BRCA Mutant), 5 days, single dose on day 1
Source text: as §1

[25] = tested on: All cell lines; experiment: Monolayer growth inhibition, crystal violet assay, range over all cell lines; assay type: cell-based; settings: 120 h; range of IC50 over all cell lines of the table; read-out: IC50 Values - Crystal Violet (5 Days), Range, All
Source text: as §2

[26] = tested on: MDA-MB-231 cells; experiment: Soft agar growth inhibition assay; assay type: cell-based; settings: Homo sapiens; MDA-MB-231 (TNBC), 14-22 days; read-out: IC50 Values - Soft Agar (14-22 Days)
[27] = tested on: MDA-MB-468 cells; experiment: Soft agar growth inhibition assay; assay type: cell-based, Human; settings: Homo sapiens; MDA-MB-468 (TNBC), 14-22 days
[28] = tested on: 4T1 cells; experiment: Soft agar growth inhibition assay; assay type: cell-based; settings: Mus musculus; 4T1 (TNBC), 14-22 days; read-out: IC50 Values - Soft Agar (14-22 Days)
Procedure: Two agar (Alfa Aesar) solutions (0.8% w/v and 0.4% w/v) were prepared in ultrapure water. The 0.8% agar solution was mixed in equal volumes with 2× media previously prepared from powder (Life Technologies) following the manufacturer's instructions and filter sterilized. The 0.8% agar and media solution was added to 24 well plates (Mandel Scientific) at 500 μl per well. The plates were placed in a humidified incubator at 37° C. with 5% CO2. Next, the 0.4% agar solution was mixed in equal volumes with 2× media. Breast cancer cell lines were added to this solution to achieve a final concentration of 2×10^4 cells per well and […] was added to each well on top of the bottom agar and media layer. […] The plates were returned to the incubator for 10-32 days, with a re-dosing of compounds or DMSO every 7 days. After 10-32 days, colonies were counted in 3 different fields of view for each well.
Representative compounds described herein were tested in the soft agar growth inhibition assay against the 4T1 breast cancer cell line.

[29] = tested on: phosphorylated Y-box binding protein-1 (YB-1) at serine 102 (P-YB-1S102); experiment: Immunoblotting of cell signalling, loss of P-YB-1 in MDA-MB-231 cells; settings: Homo sapiens, MDA-MB-231, read-out: IC50 values for P-YB-1
Procedure: Following desired experimental conditions, breast cancer cell lines grown and treated in 6 well plates or 100 mm culture dishes (Grenier Bio-One) were placed on ice and the supernatant from each well was removed and the cells were washed in cold PBS. Following removal of PBS, cells were exposed to radioimmunoprecipitation assay (RIPA) buffer (50 mM Tris-HCl (pH 8), 150 mM NaCl, 1% NP-40, 0.5% sodium deoxycholate, 0.1% SDS; Fisher Scientific) supplemented with 1% phosphatase inhibitor (Fisher Scientific) and 1% protease inhibitor (Fisher Scientific) for 10 minutes. Samples were transferred to eppendorf tubes, vortexed and then centrifuged at 14 000 rpm for 10 minutes. Supernatants were collected as whole cell lysates.
To begin, the protein content of the lysates was measured using the Bicinchoninic Acid (BCA) Protein Assay Kit (Pierce), which included a protein standard curve generated with bovine serum albumin. Appropriate volumes of samples and loading buffer (50 mM Tris-HCl (pH 6.8), 2% SDS, 10% glycerol, 1% j-mercaptoethanol, 12.5 mM EDTA, 0.02% bromophenol blue) were mixed, ensuring that equal amounts of protein were loaded. For the majority of experiments in this study, 30 μg of protein per well was loaded. Samples were then resolved on SDS-PAGE (polyacrylamide gel electrophoresis) using various percentages of acrylamide gels (8%-12%), depending on the proteins of interest. SDS-PAGE was run in SDS running buffer (25 mM Tris, 192 mM glycine, 0.1% SDS) and then transferred to nitrocellulose membranes (Bio-Rad) in transfer buffer (48 mM Tris, 39 mM glycine, 20% (v/v) methanol) at 100 volts for 90 minutes at room temperature. Immunoblots were then blocked in 5% skim milk in tris-buffered saline with 0.1% Tween-20 (TBS-T; 50 mM Tris-HCl, pH 7.5, 150 mM NaCl, 0.1% (v/v) Tween-20 (Fisher Scientific)) for 1 to 2 hours. Immunoblots were then incubated with selected primary antibodies diluted in TBS-T with 0.1% gelatin (Bio-Rad) and 0.05% sodium azide (Alfa Aesar) overnight. Following washes with TBT-T 4 times for 8 to 10 minutes, immunoblots were incubated with appropriate secondary antibodies conjugated to horseradish peroxidise (Cell Signalling Technology) diluted in TBS-T plus 5% skim milk at a ratio of 1:5000 for 2 hours at room temperature. After an additional round of washes in TBS-T, immunoblots were exposed to combined enhanced chemiluminescence (ECL) reagents (Fisher Scientific) for 1 minute and developed using ChemiDoc MP Imaging System (Bio-Rad). For certain immunoblots, bands of proteins of interest were scanned and band intensity ratios were determined by densitometric analysis (ImageJ). […] Total YB-1 was used as a loading control (1:5000 Abcam). […] To assess whether cells are actively undergoing cell death, the activity of poly ADP ribose polymerase (PARP) (1:1000 CST) was also measured using the immunoblotting method.

SMILES | Solubility, 20 mg/ml Solution [1] | IC50 [2] [µM] | IC50 [3] [µM] | IC50 [4] [µM] | IC50 [5] [µM] | IC50 [6] [µM] | IC50 [7] [µM] | IC50 [8] [µM] | IC50 [9] [µM] | IC50 [10] [µM] | IC50 [11] [µM] | IC50 [12] [µM] | IC50 [13] [µM] | IC50 [14] [µM] | IC50 [15] [µM] | IC50 [16] [µM] | IC50 [17] [µM] | IC50 [18] [nM] | IC50 [19] [µM] | IC50 [20] [µM] | further results
C[C@@H]1CNC(=O)c2cc3ccc(C(=O)Nc4cnn(Cc5ccc(C(F)(F)F)cc5)c4)nc3n21 [Compound 22, (R)-9-methyl-6-oxo-N-(1-(4-(trifluoromethyl)benzyl)-1H-pyrazol-4-yl)-6,7,8,9-tetrahydropyrido[3′,2′:4,5]pyrrolo[1,2-a]pyrazine-2-carboxamide] | Precipitate | 4.5 ± 1 | 9.9 ± 1 | 12.6 ± 3.5 | 17.1 ± 2.4 | 13.9 ± 3.5 | 6.8 ± 6.4 | 7.5 ± 2.1 | 9.2 ± 1.5 | 7.7 ± 4.6 | 7.8 ± 4.6 | 4.8 ± 0.9 | 4.5 to 17.1 | 9.9 ± 3 | 14.2 ± 5.1 | 6.6 ± 2.3 | 4.3 ± 2.1 | 2600 ± 1500 | 6.6 ± 3.1 | 6.6 ± 2.1 | IC50 [21]: 3200 ± 1300 nM; IC50 [22]: 6.8 ± 1.8 µM; IC50 [23]: 6.2 ± 4.8 µM; IC50 [24]: 8 ± 1.3 µM; IC50 [25]: 2.6 to 14.2 µM; IC50 [26]: 200 ± 100 nM; IC50 [27]: 6.9 ± 1.7 µM; IC50 [28]: 3.8 ± 1.9 µM; IC50 [29]: 24 nM
C[C@@H]1CNC(=O)c2cc3ccc(C(=O)Nc4cnn(Cc5ccc(F)cc5F)c4)nc3n21 [Compound 23, (R)—N-(1-(2,4-difluorobenzyl)-1H-pyrazol-4-yl)-9-methyl-6-oxo-6,7,8,9-tetrahydropyrido[3′,2′:4,5]pyrrolo[1,2-a]pyrazine-2-carboxamide] | Precipitate | 2.5 ± 0.8 | 9.7 ± 1.3 | 10.5 ± 1 | 19.8 ± 7.1 | 7.8 ± 2 | 1.1 ± 0.7 | 9.7 ± 1.8 | 10.7 ± 1.1 | 3 ± 2.4 | 5.1 ± 4 | 6 ± 4.9 | 1.1 to 19.8 | 8.6 ± 3 | 15 ± 6.1 | 7.2 ± 1.5 | 4.7 ± 4.9 | 1800 ± 800 | 7.3 ± 3.4 | 3.6 ± 0.8 | IC50 [21]: 1100 ± 800 nM; IC50 [22]: 6.8 ± 1.8 µM; IC50 [23]: 2.1 ± 1.6 µM; IC50 [24]: 5 ± 2.4 µM; IC50 [25]: 1.1 to 15 µM; IC50 [26]: 300 ± 200 nM; IC50 [27]: 4 ± 0.8 µM; IC50 [28]: 2.4 ± 0.6 µM; IC50 [29]: 33 nM
